A short description of series [1]: Cmax po dosed in human co-treated with rifampin. More on the design: route oral. The following applies: in vivo. Format: ADME, organism-based.
Series [2] deals with Staphylococcus aureus. Put plainly: Antimicrobial activity against Staphylococcus aureus infection in human assessed as curing from bone/joint infection at 600 mg, iv followed by 30 to 40 mg/kg of body weight, iv followed by oral regimen upto 30 months. Format: functional, organism-based.
The subject of series [3] is Serum. Nature of the series: Drug level in bone/joint infection patient serum assessed as median concentration at 2400 mg, iv after 3 to 14 days. Type of series: ADME, organism-based. The following applies: human, in vivo.
For series [4], the system named is Serum. Nature of the series: Drug level in bone/joint infection patient serum assessed as median concentration at 2400 mg, iv after 8 to 28 days. Conditions: human, in vivo. Format: ADME, organism-based.
The subject of series [5] is Staphylococcus aureus. Put plainly: Antimicrobial activity against Staphylococcus aureus SJ11617. Type of series: functional.

Activity calls are given as the source filed them. No cut-off for these calls is given here.

As a reminder, the Cmax is the maximum level reached in the sampled fluid or tissue. In general, MIC refers to the least concentration at which growth counts as inhibited.

For `CCC[C@@H]1C[C@@H](C(=O)N[C@@H]([C@H]2O[C@H](SC)[C@H](O)[C@@H](O)[C@H]2O)[C@H](C)Cl)N(C)C1` [CLINDAMYCIN], the Cmax in series [1] was less than 2.5 µg/mL. Further, in the series with Staphylococcus aureus [2], the outcome was Active. In addition, the Drug uptake in the series with Serum [3] came out at 5 mg/L; in the series on Serum [4], 6.2 mg/L. In the series on Staphylococcus aureus [5], `C[C@@H]1O[C@@H]1P(=O)(O)O` [FOSFOMYCIN] showed a minimal inhibitory concentration (MIC) greater than 512 mg/L. Same read-out and setting: in the case of `CC(=O)O[C@H]1C[C@@]2(C)[C@@H](C[C@@H](O)[C@H]3[C@@]4(C)CC[C@@H](O)[C@@H](C)[C@@H]4CC[C@@]32C)/C1=C(\CCC=C(C)C)C(=O)O` [FUSIDIC ACID] it was greater than 256 mg/L; in that of `CO[C@H]1/C=C/O[C@@]2(C)Oc3c(C)c(O)c4c(O)c(c(/C=N/N5CCN(C)CC5)c(O)c4c3C2=O)NC(=O)/C(C)=C\C=C\[C@H](C)[C@H](O)[C@@H](C)[C@@H](O)[C@@H](C)[C@H](OC(C)=O)[C@@H]1C` [RIFAMPIN], greater than 128 mg/L.

(Values after ChEMBL document CHEMBL1212750, “Continuous clindamycin infusion, an innovative approach to treating bone and joint infections” (Antimicrob Agents Chemother, 2010).)
